# Where no end group is shown, it is not given here.
# Assays:
# [1] = system: Human umbilical vein endothelial cells (HUVEC); assay: MTT cytotoxicity and cell viability assay; format: cell-based; conditions: 72 h; for cell viability (MTT), significance relative to untreated control (1% FBS): p<0.01
# Description: For in vitro cell culture tests, the peptide (previously dissolved in water and stored at −20° C.) was resuspended, at the desired concentration, in culture medium supplemented with fetal bovine serum (FBS). The concentration of FBS was selected depending on the requirements of each experiment.
# The MTT method was used (Mosmann, T., Rapid colorimetric assay for cellular growth and survival: application to proliferation and cytotoxicity assays. J Immunol Methods, 1983. 65(1-2): p. 55-63). The viability test was performed in culture plates of 96 wells. […] After 72 h, the supernatant was discarded and the cells washed twice with phosphate buffered saline (PBS) at pH 7.4 and incubated at 37° C. for 3 h with 100 μl of 0.5 mg/ml MTT reagent (3-(4,5-dimethylthiazol-2-yl)-2,5-diphenyl tetrazolium bromide) in PBS. The supernatant was removed and the reaction was stopped with 100 μl of dimethyl sulfoxide (DMSO). Absorbance values were determined at 540 nm using a SpectraMax™ 190 automatic plate reader (Molecular Devices, USA).
# The results were expressed as a percentage of cell viability relative to the untreated control at time zero (initial number of cells). Absorbance values were determined at 540 nm. The results were expressed as the average ±standard error of the mean (SEM) of 5 independent experiments. Statistical significance between the groups were determined by a one-way ANOVA test (*: p<0.05, **: p<0.01).
# [2] = system: human dermal fibroblasts (FN1); assay: Cell proliferation by CFDA-SE staining, flow cytometry; format: cell-based; conditions: FN1 cells; for proliferation / cytoprotection (CFDA-SE staining): 1% FBS, 48 hours; for proliferation rate (CFDA-SE staining): 10% FBS, 48 h, p<0.001 versus control 10% FBS
# Description: Quantitative assessment of cell proliferation was performed by staining cells with carboxyfluorescein succinimidyl ester (CFDA-SE), as described previously (Asquith, B., et al., Quantifying lymphocyte kinetics in vivo using carboxyfluorescein diacetate succinimidyl ester (CFSE). Proc Biol Sci, 2006. 273(1590): p. 1165-71; Lyons, A. B., Analysing cell division in vivo and in vitro using flow cytometric measurement of CFSE dye dilution. J Immunol Methods, 2000. 243(1-2): p. 147-54). CFDA-SE is a lipophilic dye which reacts with amino groups of peptides and proteins, forming a stable amide linkage, which can be detected using flow cytometry analysis. The CFDA-SE passively diffuses into cells. It is colorless and nonfluorescent until its acetate groups are cleaved by intracellular esterases to produce a highly fluorescent, amine reactive succinimidyl ester of carboxyfluorescein, which is well conserved and can be fixed with aldehyde fixatives. The excess reagent and unconjugated by products passively diffuse into the extracellular environment where they can be washed away. When parent cells divide, CFDA-SE dye is equally distributed to the daughter cells, which therefore have half of the fluorescence intensity of the parents. The reduction of fluorescence intensity of cell generations in cell proliferation is easily detected by flow cytometry.
# For the assay, human dermal fibroblasts (FN1) cells were seeded in six-well plates (1×10^4 cells/well), incubated with […] CFDA—SE diluted in PBS, and cultured at 37° C. with 5% CO2 for 15 minutes protected from light, according to the manufacturer's instructions (Vybrant® CFDA SE Cell Tracer Kit, MolecularProbes). […] Subsequently, the cells were trypsinized and the cell buttons resuspended in 300 μl of FACS buffer with 2% paraformaldehyde and kept in the refrigerator until the moment of reading. Cell proliferation by CFDA—SE was estimated by the reduction in cell fluorescence. Fluorescence was determined for excitation at λ=492 nm and for emission at λ=517 nm (10000 events per sample) in a FACScalibur™ flow cytometry system (Becton and Dickson) using the CellQuest™ software. The parameters FSC (size) and SSC (granularity/complexity) was detected in linear scale and FL1-H on a logarithmic scale. Proliferation was analyzed using the program ModFit LT™ 2.0 (Verity Software House, Topsham, Me., USA). The figures are expressed as the average ±standard error of the mean (SEM) of 5 independent experiments (Student's t test).
# FN1 fibroblasts [3] = assay: Cell cycle phases by propidium iodide flow cytometry; format: cell-based, human; conditions: 48 hours
# Description: The distribution of cells in the various cell cycle phases was determined by the content or amount of propidium iodide (PI) incorporated into the cell, measured by flow cytometry (Vindelov, L. L., I. J. Christensen, and N. I. Nissen, Standardization of high-resolution flow cytometric DNA analysis by the simultaneous use of chicken and trout red blood cells as internal reference standards. Cytometry, 1983. 3(5): p. 328-31). […] After treatment, the FN1 cell suspensions were resuspended in 70% ethanol and kept in a freezer at −20° C. for subsequent analysis of cell cycle phases. At the time of the experiment, cells were incubated in a PBS solution: 950 μl of PBS, 40 μl of PI (1 mg/ml) and 10 μl of Rnase: (10 mg/ml), to assess the quantity and integrity of DNA in the cell cycle phases. The results obtained by the acquisition program CellQuest™ acquired on a FACScalibur™ flow cytometer (Becton and Dickson, USA) were analyzed by FACS ModFit™ 2.8. The DNA content was expressed as mean percentage±standard error of the mean (SEM) of 3 independent experiments (Student's t test) of cells distributed in the different cell cycle phases: apoptotic cells, G0/G1, S and G2/M.
# FN1 cells = assay: Detection of intracellular reactive oxygen and nitrogen species (ROS); format: cell-based, human; conditions: for ROS production: serum-deprived (1% FBS)
# Description: The detection of reactive species was performed by the ROS Detection Kit (Enzo Life Sciences, Plymouth Meeting, Pa.) according to the manufacturer's instructions. This assay allows detecting ROS production in living cells by flow cytometry. The dye detection reagent reacts with hydrogen peroxide, peroxynitrite and hydroxyl radicals. FN1 cells at a density of 10^6/ml were plated and cultured in 6-well plates for 24 hours in incubator containing 5% CO2 at 37° C. […] Then, the cells were washed with wash buffer supplied by the manufacturer and centrifuged at 1500 rpm for 10 minutes. The supernatant was discarded and the cell button resuspended in 200 μl of PBS. The fluorescence was determined at λ=485 nm for excitation and emission λ=590 nm for a FACScalibur™ flow cytometry system using CellQuest™ software with the acquisition of 10,000 events having as parameters FSC (size) and SSC (granularity/complexity) linear scale and FL1/FL2 on logarithmic scales. The results were expressed as the mean±SEM (standard error of the mean) of 3 independent experiments.
# FN1 fibroblasts [4] = assay: Ultrastructure of fibroblasts by transmission electron microscopy (TEM); format: cell-based, human; conditions: 1% FBS, 50 ng/ml, 48 hours
# Excerpt: Severe morphological changes in normal fibroblasts are observed after serum deprivation conditions consistent with those of apoptotic cell death. […] TEM provides ultra-structural evidence about the nature of cell death (Kulkarni, G. V. and C. A. McCulloch, Serum deprivation induces apoptotic cell death in a subset of Balb/c 3T3 fibroblasts. J Cell Sci, 1994. 107 (Pt 5): p. 1169-79).
# Cells were washed 3 times with PBS and gently collected in a tube with the help of a cell scraper. The cell suspension was centrifuged, and the cell button re-suspended in a solution of 3% glutaraldehyde and 2% paraformaldehyde diluted in sodium cacodylate. The cell button was post-fixed in 1% solution of osmium tetroxide for 1 hour, washed with PBS and distilled water and dehydrated in a graded ethanol series (30, 60, 70, 80 and 100%). Finally, the epoxy resin was mixed with warm ethanol (1:1) for infiltration, and only the resin was used for the incorporation of cells (60° C./48 h). Ultrathin sections (50 nm) were cut with an ultramicrotome (Leica Ultracut™ UCT) and stained with 5% uranyl acetate in 50% ethanol and 2% aqueous solution of citrate. The obtained sections were photographed using a TEM (LEO™ 906E, Zeiss, […]) at an accelerating voltage of 80 kV.
# collagen I = assay: Extracellular matrix molecules by fluorescence microscopy; format: cell-based, human; conditions: FN1 cells, 50 ng/ml, 48 h, 10% FBS
# Excerpt: (§1) Previous studies have reported the importance of extracellular matrix components for maintaining cell survival of serum-deprived cells and that survival is enhanced by cell-cell contact. To confirm the synthesis of extracellular matrix molecules, fibroblast cultures were marked with antibodies specific for laminin and fibronectin following treatment with the synthetic peptide.
# (§2) After treatment, the medium was removed and cells were washed with PBS and fixed with 3.7% paraformaldehyde for 10 minutes. Triton X-100 (0.1%) was added for 15 minutes for permeabilization of the plasma membrane, followed by addition of the primary antibody and incubation for 12 hours (overnight) in the dark at 4° C. The cells were washed with PBS, the secondary antibody was added and the cells were kept for 1 hour at room temperature in the dark. Antibodies were diluted according to the manufacturer's recommendation. After washing, the […] cell nuclei were stained with 4′,6-diamidino-2-phenylindole (DAPI) reagent (Invitrogen) and slides were mounted on coverslips containing 4 μl of antifade solution (Vectashield™, Vector-H1000, that serves to preserve fluorescence). Cells were viewed with an Axio™ Imager A1 fluorescence microscope (Carl Zeiss, Germany).
# (§3) Primary antibodies in blocking buffer: 10% FBS, 1% BSA in TBS (0.1% Triton X-100 in PBS):
# Mouse monoclonal to Collagen type I [Col-I] (abcam): 1/1000
# fibronectin = assay: as above; format: cell-based, human; conditions: FN1 cells, 50 ng/ml, 48 h, 10% FBS
# Excerpt: as §1, §2, §3
# Rabbit polyclonal to Fibronectin (abcam): 2 μg/ml
# laminin = assay: as above; format: cell-based, human; conditions: FN1 cells, 50 ng/ml, 48 h, 10% FBS
# Excerpt: as §1, §2, §3
# Rabbit polyclonal to Laminin alpha 4 (abcam): 1/500
# vitronectin = assay: as above; format: cell-based, human; conditions: FN1 cells, 50 ng/ml, 48 h, 10% FBS
# Excerpt: as §1, §2, §3
# Mouse monoclonal [VN58-1] […]
# [5] = 125 μg/ml, 25° C., sodium phosphate buffer, pH 6.0 to 8.0, 24 hours
# Description: Measurement of the structural integrity of the peptide was carried out using sodium phosphate buffer at various pH values (6.0, 6.4, 6.8, 7.0, 7.4, 8.0) containing 125 μg/ml of the peptide. Peptide solutions were incubated overnight at room temperature (25° C.). Analyses of circular dichroism (CD) were performed on a J-810 spectropolarimeter controlled by Spectra Manager™ software (JASCO), using cuvettes with optical path length of 0.1 cm (Biotechnology Center—Instituto Butantan). The CD spectra were recorded in the range 183-260 nm every 0.1 nm. The spectrum of each sample was subtracted from the spectrum of the buffer without peptide.
# [6] = 25 ng/ml, p<0.05 versus control 1% FBS
# [7] = 50 ng/ml, p<0.001 versus control 1% FBS
sequence,measurement,setting,value
DYFKDGKDVN [LONO-Q],"cellular proliferation (MTT), significance","[1]; 10% FBS, 50 ng/ml, p<0.05",statistically significant results
same,cell viability (MTT),"[1]; HUVECs, 1% FBS (serum deprivation), dose response",stimulated cell viability in a dose-dependent manner
same,"cell viability (MTT), significance relative to untreated control (1% FBS)","[1]; HUVECs, 25 ng/ml",statistically significant results
same,"cell viability (MTT), significance relative to untreated control (1% FBS)","[1]; HUVECs, 50 ng/ml",statistically significant results
same,cellular proliferation (MTT),"[1]; normal conditions (10% FBS), dose response",stimulated the cellular proliferation in a dose-dependent manner
same,proliferation / cytoprotection (CFDA-SE staining),[2]; [6],significant cytoprotection
same,proliferation / cytoprotection (CFDA-SE staining),[2]; [7],significant cytoprotection
same,proliferation rate (CFDA-SE staining),[2]; 25 ng/ml,statistically significant increase in the proliferation rate
same,proliferation rate (CFDA-SE staining),[2]; 50 ng/ml,statistically significant increase in the proliferation rate
same,apoptotic cells (fragmented DNA),"FN1 fibroblasts [3]; 1% FBS, 50 ng/ml, n=3, mean±SEM, p<0.01 vs. control 1% FBS",8.1±1.1%
same,cells in S phase of the cell cycle,"FN1 fibroblasts [3]; 1% FBS, 50 ng/ml, n=3, mean±SEM, p<0.05 vs. control 1% FBS",17.2±1.5%
same,"S phase of the cell cycle, dose dependence","FN1 fibroblasts [3]; 1% FBS, 25 or 50 ng/ml",apparent dose-dependent increase of the S phase
same,cells in G2/M,"FN1 fibroblasts [3]; 10% FBS, 50 ng/ml, n=3, mean±SEM, p<0.05 vs. control 10% FBS",18.4±2.5%
same,ROS generation,FN1 cells; normal cell growth (10% FBS),no statistically significant decrease in ROS generation
same,ROS production,FN1 cells; [6],statistically significant decrease of ROS production
same,ROS production,FN1 cells; [7],statistically significant decrease of ROS production
same,morphological changes induced by serum deprivation (TEM),FN1 fibroblasts [4],retards most of the effects observed in serum deprived cells
same,production of collagen I,collagen I,increased amounts
same,production of fibronectin,fibronectin,increased amounts
same,production of laminin,laminin,increased amounts
same,production of vitronectin,vitronectin,increased amounts
same,Stability (circular dichroism),[5],remains stable
